Test results published in US5451572A (Genentech, Inc., priority 1993, dated 1995).

Key:
[1] = Reverse phase HPLC stability of liquid relaxin formulations; details: in Milli-Q water at 5° C., reference material
Description: All buffers were made up to isotonicity (0.154 μ) with the addition of NaCl. […] The resulting 135 100-μL-microvials and 90 1.5-ml-vials were placed on stability tests at 5, 25 and 40° C. Samples were assayed at 0, 7, 21, and 30 days by reverse phase HPLC, ELISA, and cyclic AMP assays. In addition to these assays, the samples were also assayed by near UV circular dichroism (near UV CD) and analytical ultracentrifugation (UC) on days 0 and 30.
The resulting nine samples were each sterile filtered, divided into three equal volumes, and loaded into sterile 300 μL glass microvials. The resulting 27 vials containing about 9 mg were placed on stability testing at 5, 25, and 40° C. for up to 40 days. Samples were assayed by an ELISA assay and a C4 reverse-phase HPLC assay on days 0, 7, 14, 28, and 40. The remaining 3 mg of relaxin was kept in Milli-Q water at 5° C. and used as the reference material. […] These observations were repeated on reference samples used in subsequent stability studies. […]
Study 1: The degradation of relaxin as a function of time was monitored by reverse phase HPLC. […] The fraction of the main peak remaining was computed from triplicate samples (when available), and first-order plots of the degradation kinetics of the main HPLG peak for the five formulations shown in Table I (ranging from 3.0 to 7.5) were determined. […]

rabbit cervix = assay: Efficacy on the ripening of the rabbit cervix; type: in vivo; details: initial study, 300 μg/ml topical formulation, 0.5 ml intravaginal, eighteen hours
Description: Mature pregnant female New Zealand rabbits weighing 4.5 to 6.0 kg were studied. […] Both hormones were applied intravaginally by means of a syringe and a catheter in a volume of 0.5 ml. Control animals received the vehicle alone. After 16-18 hours, the animals were sacrificed using a lethal dose of pentobarbital. […] Paraffin sections were cut and stained with hematoxylin/eosin and alcian blue PAS. Sections were evaluated for general morphology, and specifically for the degree of separation of muscular tissue and collagen fibrils in the submucosa and for the presence of characteristic PAS positive giant cells, which are multinucleate cells of macrophage origin that normally infiltrate the cervix during labor. The measurement of giant cells is accomplished using the procedure described by MacLennan et al., Am J. Obstet.

cervix [2] = details: 2-mg dose in methylcellulose gel; MacLennan et al. (1981); cited from earlier work
cervix [3] = details: infusion of 3000 units in the cervical os; Perezgrovas and Anderson (1982); cited from earlier work

Compound | stability by reverse phase HPLC [1] | morphology of the pregnant cervix (ripening) (rabbit cervix) | cervical score (cervix [2]) | time to increased dilatation of the cervix (cervix [3])
CC[C@H](C)[C@@H]1NC(=O)[C@H](C)NC(=O)[C@H]([C@@H](C)CC)NC(=O)[C@H](CCC(N)=O)NC(=O)[C@H](C)NC(=O)[C@H](CCCNC(=N)N)NC(=O)[C@H](C(C)C)NC(=O)[C@H](CC(C)C)NC(=O)[C@H](CCC(=O)O)NC(=O)[C@H](CCCNC(=N)N)NC(=O)CNC(=O)[C@@H](NC(=O)[C@H](CC(C)C)NC(=O)[C@H](CCCCN)NC(=O)[C@@H](NC(=O)[C@@H](NC(=O)[C@H](CCC(=O)O)NC(=O)[C@H](CCC(=O)O)NC(=O)[C@H](CCSC)NC(=O)[C@H](Cc2c[nH]c3ccccc23)NC(=O)[C@H](CO)NC(=O)[C@@H](N)CC(=O)O)C(C)C)[C@@H](C)CC)CSSC[C@@H]2NC(=O)[C@@H](NC(=O)[C@H](CCCCN)NC(=O)[C@H](CC(N)=O)NC(=O)[C@H](C)NC(=O)[C@H](CC(C)C)NC(=O)[C@H](C)NC(=O)[C@H](CO)NC(=O)[C@H](Cc3ccc(O)cc3)NC(=O)[C@H](CC(C)C)NC(=O)[C@@H]3CCC(=O)N3)CSSC[C@H](NC(=O)CNC(=O)[C@H](C(C)C)NC(=O)[C@H](Cc3c[nH]cn3)NC2=O)C(=O)N[C@@H]([C@@H](C)O)C(=O)N[C@@H](CCCCN)C(=O)N[C@@H](CCCNC(=N)N)C(=O)N[C@@H](CO)C(=O)N[C@@H](CC(C)C)C(=O)N[C@@H](C)C(=O)N[C@@H](CCCNC(=N)N)C(=O)N[C@@H](Cc2ccccc2)C(=O)N[C@H](C(=O)O)CSSC[C@@H](C(=O)NCC(=O)N[C@@H](CCSC)C(=O)N[C@@H](CO)C(=O)N[C@H](C(=O)N[C@@H](Cc2c[nH]c3ccccc23)C(=O)N[C@@H](CO)C(=O)N[C@@H](CCCCN)C(=O)N[C@@H](CCCNC(=N)N)C(=O)N[C@@H](CO)C(=O)N[C@@H](CC(C)C)C(=O)O)[C@@H](C)O)NC1=O [long relaxin] | stable by reverse phase HPLC for at least five months | – | – | –
porcine relaxin | – | induce changes in the morphology of the pregnant cervix consistent with ripening | improve the cervical score | ≤ 8 h
